Results as given in PubChem BioAssay (NCI).
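The compound was tested at five concentrations on cells cultured in 96-well plates, with a 48-hour exposure period. TGI denotes the concentration required for complete inhibition of growth.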

How the values were obtained:
Experiment in all cases: inhibition of tumour cell growth, NCI panel, 48 h
CAKI-1 renal = tested on: CAKI-1 renal
SN12C renal = tested on: SN12C renal
OVCAR-4 ovarian = tested on: OVCAR-4 ovarian
LOX IMVI melanoma = tested on: LOX IMVI melanoma
HOP-92 NSCLC = tested on: HOP-92 NSCLC
U251 CNS = tested on: U251 CNS
UACC-257 melanoma = tested on: UACC-257 melanoma
HT29 colon = tested on: HT29 colon
NCI-H226 lung = tested on: NCI-H226 lung
SW-620 colon = tested on: SW-620 colon
HOP-62 NSCLC = tested on: HOP-62 NSCLC
SF-295 CNS = tested on: SF-295 CNS
HCT-116 colon = tested on: HCT-116 colon
SR leukemia = tested on: SR leukemia
MDA-MB-435 = tested on: MDA-MB-435
MOLT-4 leukemia = tested on: MOLT-4 leukemia
RXF 393 renal = tested on: RXF 393 renal
NCI-H522 lung = tested on: NCI-H522 lung
HCT-15 colon = tested on: HCT-15 colon
MCF7 breast = tested on: MCF7 breast
KM12 colon = tested on: KM12 colon
786-0 renal = tested on: 786-0 renal
PC-3 prostate = tested on: PC-3 prostate
OVCAR-8 ovarian = tested on: OVCAR-8 ovarian
NCI-H460 lung = tested on: NCI-H460 lung
COLO 205 colon = tested on: COLO 205 colon
SNB-19 CNS = tested on: SNB-19 CNS
SNB-75 CNS = tested on: SNB-75 CNS
ACHN renal = tested on: ACHN renal
OVCAR-5 ovarian = tested on: OVCAR-5 ovarian
DU-145 prostate = tested on: DU-145 prostate
MALME-3M melanoma = tested on: MALME-3M melanoma
NCI-H23 lung = tested on: NCI-H23 lung
IGROV1 ovarian = tested on: IGROV1 ovarian
SK-OV-3 ovarian = tested on: SK-OV-3 ovarian
K-562 leukemia = tested on: K-562 leukemia
HCC-2998 colon = tested on: HCC-2998 colon
HL-60(TB) leukemia = tested on: HL-60(TB) leukemia
HS 578T breast = tested on: HS 578T breast
SK-MEL-28 melanoma = tested on: SK-MEL-28 melanoma
UO-31 renal = tested on: UO-31 renal
SF-268 CNS = tested on: SF-268 CNS
EKVX NSCLC = tested on: EKVX NSCLC
T-47D breast = tested on: T-47D breast
SK-MEL-5 melanoma = tested on: SK-MEL-5 melanoma
A498 renal = tested on: A498 renal
M14 melanoma = tested on: M14 melanoma
SK-MEL-2 melanoma = tested on: SK-MEL-2 melanoma
TK-10 renal = tested on: TK-10 renal
CCRF-CEM leukemia = tested on: CCRF-CEM leukemia
UACC-62 melanoma = tested on: UACC-62 melanoma
OVCAR-3 ovarian = tested on: OVCAR-3 ovarian
NCI/ADR-RES ovarian = tested on: NCI/ADR-RES ovarian
MDA-MB-231 breast = tested on: MDA-MB-231 breast
SF-539 CNS = tested on: SF-539 CNS
RPMI-8226 leukemia = tested on: RPMI-8226 leukemia
BT-549 breast = tested on: BT-549 breast
A549 NSCLC = tested on: A549 NSCLC
MDA-N = tested on: MDA-N

Measured: TGI

OCCN(CCO)CCn1cnc2c(NCc3ccccc3)ncnc21
> 100 µM: CAKI-1 renal | SN12C renal | OVCAR-4 ovarian | LOX IMVI melanoma | HOP-92 NSCLC | U251 CNS | UACC-257 melanoma | HT29 colon | NCI-H226 lung | SW-620 colon | HOP-62 NSCLC | SF-295 CNS | HCT-116 colon | SR leukemia | MDA-MB-435 | MOLT-4 leukemia | RXF 393 renal | NCI-H522 lung | HCT-15 colon | MCF7 breast | KM12 colon | 786-0 renal | PC-3 prostate | OVCAR-8 ovarian | NCI-H460 lung | COLO 205 colon | SNB-19 CNS | SNB-75 CNS | ACHN renal | OVCAR-5 ovarian | DU-145 prostate | MALME-3M melanoma | NCI-H23 lung | IGROV1 ovarian | SK-OV-3 ovarian | K-562 leukemia | HCC-2998 colon | HL-60(TB) leukemia | HS 578T breast | SK-MEL-28 melanoma | UO-31 renal | SF-268 CNS | EKVX NSCLC | T-47D breast | SK-MEL-5 melanoma | A498 renal | M14 melanoma | SK-MEL-2 melanoma | TK-10 renal | CCRF-CEM leukemia | UACC-62 melanoma | OVCAR-3 ovarian | NCI/ADR-RES ovarian | MDA-MB-231 breast | SF-539 CNS | RPMI-8226 leukemia | BT-549 breast | A549 NSCLC | MDA-N
